From PMC5803267, “A small molecule inhibitor of Rheb selectively targets mTORC1 signaling” (Nature Communications, 2018) come the findings set out here.

Entries after “also recorded” stand apart in the source; their conditions may differ.

One data set is described as follows: Aqueous solubility. The following applies: result in words. In kind it is physicochemical.
Another data set has as its system Jurkat cells. Briefly: Cell size assay in Jurkat cells (forward scatter, flow cytometry). The class given is cell-based, human. The conditions noted are these: 48 h incubation, dose-dependent. On the procedure: Based on the dependence of cell size on mTORC1 activity, we assessed the effect of NR1 on the size of Jurkat cells, a human T cell line grown in suspension and responsive to mTORC1 inhibition.
Data are plotted as percent decrease in forward scatter. […] Error bars represent standard deviation of the mean of duplicates; graph represents data from one of two separate experiments
For the cell size assay, Jurkat Clone E-61 cells were plated in 96-well plates concurrent with compound. The cells were incubated at 37 °C and 5% CO2 for 48 h. PI stain (Invitrogen #727949) was added at a final concentration of 1 µg mL^−1, and cells were incubated for 15 min at room temperature. FACS analysis was performed; at least 10,000 events were collected for each sample. Viable cells (PI minus) were counted for FSC and SSC, and cell size (as measured by FSC) relative to the DMSO control was calculated.
Background: In flow cytometry, cells or beads pass a laser one at a time.

In another data set the test system is Rap1. The experiment in a line: Rap1 in vitro activity assay (GST-RalGDS-RBD pulldown from lysates). The conditions noted are these: lysates loaded with GDP or GTPγS, compound 30 min. The class given is biochemical, human. How it is done:
MCF-7 cells were serum-starved for 16 h and treated with compound for 90 min before cell lysis and Western blot analysis. For insulin-stimulated cells, 100 nM insulin was added 30 min before cell lysis. For EGF-stimulated cells, 100 ng mL^−1 EGF was added 10 min before cell lysis. c Rap1 activity was detected in lysates loaded in vitro with either GDP or GTPγS and treated with NR1 at the indicated concentrations. This was followed by a subsequent pulldown of GST-RalGDS-RBD. Bound Rap1 was detected by Western blot. d Evaluation of NR1 in a LAM patient-derived cell line (TRI102) under replete and serum-starved conditions. For replete conditions, TRI102 cells were treated for 90 min with compound in DMEM + 10% FBS. For serum-starved conditions, TRI102 cells were serum-starved 16 h and then treated for 90 min with compound prior to cell lysis and Western blot analysis. e HEK293 cells co-transfected with the indicated mTOR constructs and HA-GST-S6K1 were starved of amino acids or treated with NR1. To assess mTORC1 activity, an HA IP was performed and Western blots probed for ^T389pS6K1. f Chronic treatment of PC3 cells with NR1 to evaluate the inhibition of mTORC1 (using ^T389pS6K1) versus mTORC2 (using ^S473pAKT). PC3 cells were treated with compound under replete conditions for 24 h prior to cell lysis and Western blot analysis. […]

Data set [1] deals with S473pAKT (mTORC2) in PC3 cells. Briefly: Chronic treatment of PC3 cells, S473pAKT Western blot. In kind it is cell-based, human. On the procedure: MCF-7 cells were serum-starved for 16 h and treated with compound for 90 min before cell lysis and Western blot analysis. For insulin-stimulated cells, 100 nM insulin was added 30 min before cell lysis. For EGF-stimulated cells, 100 ng mL^−1 EGF was added 10 min before cell lysis. c Rap1 activity was detected in lysates loaded in vitro with either GDP or GTPγS and treated with NR1 at the indicated concentrations. This was followed by a subsequent pulldown of GST-RalGDS-RBD. Bound Rap1 was detected by Western blot. d Evaluation of NR1 in a LAM patient-derived cell line (TRI102) under replete and serum-starved conditions. For replete conditions, TRI102 cells were treated for 90 min with compound in DMEM + 10% FBS. For serum-starved conditions, TRI102 cells were serum-starved 16 h and then treated for 90 min with compound prior to cell lysis and Western blot analysis. e HEK293 cells co-transfected with the indicated mTOR constructs and HA-GST-S6K1 were starved of amino acids or treated with NR1. To assess mTORC1 activity, an HA IP was performed and Western blots probed for ^T389pS6K1. f Chronic treatment of PC3 cells with NR1 to evaluate the inhibition of mTORC1 (using ^T389pS6K1) versus mTORC2 (using ^S473pAKT). PC3 cells were treated with compound under replete conditions for 24 h prior to cell lysis and Western blot analysis.
Accordingly, a hallmark of a selective mTORC1 inhibitor such as NR1 would be the lack of mTORC2 inhibition irrespective of the duration of treatment. PC3 cells are sensitive to mTORC2 inhibition with long-term rapamycin treatment. Indeed, upon treatment with rapamycin for 24 h, both ^T389pS6K1 and ^S473pAKT were lowered, indicating inhibitory effects on both mTORC1 and mTORC2, respectively.
For Western-based signaling assays, cells were treated for either 90 min or 2–24 h as indicated before lysis, normalization, and Western analysis. Cells were lysed in Triton lysis buffer: 1% Triton X-100, 50 mM HEPES pH 7.4, 100 mM NaCl, 2 mM EDTA, 10 mM β-glycerophosphate, 10 mM Na-pyrophosphate, protease inhibitor.
For orientation: A western blot detects proteins with antibodies after separation by electrophoresis.

Turning to `CN(C)C(=O)c1ccc(Cn2c(C(=O)O)cc3c(Br)cc(Sc4ccc(Cl)c(Cl)c4)cc32)cc1` [NR1, 4-bromo-6-(3,4-dichlorophenylthio)-1-(4-(dimethylcarbamoyl)benzyl)-1H-indole-2-carboxylic acid], the aqueous solubility result in the data set “Aqueous solubility” was “low aqueous solubility”. In the data set on Jurkat cells, the “size of Jurkat cells” value is on record as “effectively reduced the size”. For the same compound, the “effect on activity of Rap1 in vitro” value with Rap1 was “no impact on the activity of Rap1; also recorded: did not affect the activity of Rap1”. Moreover, in data set [1] (PC3, replete, 24 h, NR1 30 µM, rapamycin 100 nM), the “S473pAKT after 24 h treatment” value is “no inhibition”. In addition, the “pAkt over time course” value in data set [1] (PC3, time points 2 h through 24 h) was “activates pAkt”.
